# Measured values reported in patent US10195156B2, “Compounds and compositions for intracellular delivery of agents” (ModernaTX, Inc., priority 2015, dated 2019).
# Experiments:
# [1] = Particle size and polydispersity index of nanoparticle compositions (Zetasizer Nano ZS); assay type: physicochemical
# Method: A Zetasizer Nano ZS (Malvern Instruments Ltd, Malvern, Worcestershire, UK) can be used to determine the particle size, the polydispersity index (PDI) and the zeta potential of the nanoparticle compositions in 1×PBS in determining particle size and 15 mM PBS in determining zeta potential.
# [2] = Encapsulation efficiency of RNA (QUANT-IT RIBOGREEN RNA assay); assay type: physicochemical
# Method: For nanoparticle compositions including an RNA, a QUANT-IT™ RIBOGREEN® RNA assay (Invitrogen Corporation Carlsbad, Calif.) can be used to evaluate the encapsulation of an RNA by the nanoparticle composition. The samples are diluted to a concentration of approximately 5 μg/mL in a TE buffer solution (10 mM Tris-HCl, 1 mM EDTA, pH 7.5). 50 μL of the diluted samples are transferred to a polystyrene 96 well plate and either 50 μL of TE buffer or 50 μL of a 2% Triton X-100 solution is added to the wells. The plate is incubated at a temperature of 37° C. for 15 minutes. The RIBOGREEN® reagent is diluted 1:100 in TE buffer, and 100 μL of this solution is added to each well. The fluorescence intensity can be measured using a fluorescence plate reader (Wallac Victor 1420 Multilablel Counter; Perkin Elmer, Waltham, Mass.) at an excitation wavelength of, for example, about 480 nm and an emission wavelength of, for example, about 520 nm. The fluorescence values of the reagent blank are subtracted from that of each of the samples and the percentage of free RNA is determined by dividing the fluorescence intensity of the intact sample (without addition of Triton X-100) by the fluorescence value of the disrupted sample (caused by the addition of Triton X-100).
# [3] = pKa of nanoparticle compositions; assay type: physicochemical
# [4] = system: luciferase (Luc) mRNA expression; assay: Expression of Luc induced by sample formulations, whole-body bioluminescence after intravenous administration; assay type: in vivo; settings: mice, i.v., 0.5 mg/kg
# Method: In order to monitor how effectively various nanoparticle compositions deliver therapeutic and/or prophylactic agents to targeted cells, different nanoparticle compositions including a particular therapeutic and/or prophylactic agent (for example, a modified or naturally occurring RNA such as an mRNA) are prepared and administered to rodent populations. Mice are intravenously, intramuscularly, intraarterially, or intratumorally administered a single dose including a nanoparticle composition with a formulation such as those provided in Table 1. In some instances, mice may be made to inhale doses. Dose sizes may range from 0.001 mg/kg to 10 mg/kg, where 10 mg/kg describes a dose including 10 mg of a therapeutic and/or prophylactic agent in a nanoparticle composition for each 1 kg of body mass of the mouse. A control composition including PBS may also be employed.
# Upon administration of nanoparticle compositions to mice, dose delivery profiles, dose responses, and toxicity of particular formulations and doses thereof can be measured by enzyme-linked immunosorbent assays (ELISA), bioluminescent imaging, or other methods. For nanoparticle compositions including mRNA, time courses of protein expression can also be evaluated. Samples collected from the rodents for evaluation may include blood, sera, and tissue (for example, muscle tissue from the site of an intramuscular injection and internal tissue); sample collection may involve sacrifice of the animals.
# The efficacy of the nanoparticle compositions presented in Tables 1, 1a, 17-1, 19-1, 20-1 and 21-1 was evaluated with a bioluminescence study. Formulations were administered intravenously to mice (n=6) at a dosage of 0.5 mg/kg (mpk) and bioluminescence measured at 3, 6, and 24 hour time points. The standard MC3 formulation and a PBS control were evaluated for comparison.
# [5] = system: modified luciferase expression; assay: Expression of Luc in different organs (liver, lung, spleen, femur) 6 hours after intravenous administration; assay type: in vivo; settings: i.v., 0.5 mpk
# Method: The efficacy of the nanoparticle compositions presented in Tables 1, 1a, 17-1, 19-1, 20-1 and 21-1 was further evaluated by measuring the expression of modified luciferase in the liver, lung, spleen, and femur upon administration of a given composition. Formulations were administered intravenously to mice (n=3) at a dosage of 0.5 mpk and bioluminescence measured after 6 hours. The standard MC3 formulation and a PBS control were also tested.
# IL-6 = assay: Cytokine production induced by sample formulations: IL-6; assay type: in vivo; settings: mice, i.v., 0.5 mpk, 6 hours; for IL-6: in pg/mL (unit assumed)
# Source text: (§1) The introduction of foreign material into a mammalian body induces an innate immune response that promotes cytokine production. Such immune responses to, for example, nanoparticle compositions including therapeutic and/or prophylactic agents, are undesirable. The induction of certain cytokines is thus measured to evaluate the […] of nanoparticle compositions. The concentrations of various cytokines in mice upon intravenous administration of nanoparticle compositions presented in Tables 1, 1a, 17-1, 19-1, 20-1 and 21-1 at a dosage of 0.5 mpk was measured at 6 hours. The standard MC3 formulation and a PBS control were also tested.
# IP-10 = assay: Cytokine production induced by sample formulations: IP-10; assay type: in vivo; settings: mice, i.v., 0.5 mpk, 6 hours; for IP-10: in pg/mL (unit assumed)
# Source text: as §1
# [6] = Table 20-1, rows without footnote mark
# [7] = comparison amongst compositions
# [8] = Table 1, rows without footnote mark
# [9] = Table 1, rows without footnote mark (lipid:DOPE:cholesterol:PEG-DMG 40:20:38.5:1.5, Luc mRNA; MC3 standard formulation)
structure (smiles),measurement,setting,value
"CCCCCCCCCCCCN(CCO)CCN(CCCCCCCC(=O)OCCCCCCCCC)CCCCCCCC(=O)OCCCCCCCCC [Compound 20-10, Dinonyl 8,8′-((2-(dodecyl(2-hydroxyethyl)amino)ethyl)azanediyl)dioctanoate]",PDI,[1]; [6],0.130
same,Size (nm),[1]; [6],85.7 nm
same,EE (%),[2]; [6],91.4%
same,pKa,[3]; [6],6.42
same,Total Flux 3 hours,[4]; Table 20-2,5.05E+09
same,Total Flux 6 hours,[4]; Table 20-2,2.16E+09
same,Total Flux 24 hours,[4]; Table 20-2,2.54E+08
same,Total Flux Femur,"[5]; Table 20-3, mice",3.09E+06
same,Total Flux Liver,"[5]; Table 20-3, mice, liver",4.40E+08
same,Total Flux Lung,"[5]; Table 20-3, mice",5.01E+06
same,Total Flux Spleen,"[5]; Table 20-3, mice",9.67E+07
same,IL-6,"IL-6; Table 20-4, formula (20-I)",739.0
same,"IL-6 induction, rank within the named table (in words)",IL-6,highest
same,IP-10,"IP-10; Table 20-4, formula (20-I)",2356.8
"CCCCC/C=C\C/C=C\CCCCCCCCN(CCO)CCCCCCCCCCCCCC [Compound 17-5, 2-(((9Z,12Z)—Octadeca-9,12-dien-1-yl)(tetradecyl)amino)ethan-1-ol]",PDI,[1]; Table 17-1,0.137
same,Size (nm),[1]; Table 17-1,88.4 nm
same,EE (%),[2]; Table 17-1,94.2%
same,pKa,[3]; Table 17-1,6.92
same,Total Flux 3 hours,[4]; Table 17-2,6.64E+08
same,Total Flux 6 hours,[4]; Table 17-2,8.54E+08
same,Total Flux 24 hours,[4]; Table 17-2,5.97E+07
same,Total Flux Liver,"[5]; Table 17-3, mice, liver",1.17E+08
same,Total Flux Lung,"[5]; Table 17-3, mice",8.13E+05
same,Total Flux Spleen,"[5]; Table 17-3, mice",2.13E+06
same,"total flux in the liver, rank within the named table (in words)","[5]; mice, liver",somewhat comparable to those including MC3
same,"total flux in the spleen, rank within the named table (in words)",[5]; mice,highest
same,IL-6,IL-6; Table 17-4,49.2
same,IP-10,IP-10; Table 17-4,300
"CCCCC/C=C\C/C=C\CCCCCCCCN(CCO)CCCCCCCCCCCCCCCCCC [Compound 17-6, 2-(((9Z,12Z)—Octadeca-9,12-dien-1-yl)(octadecyl)amino)ethan-1-ol]",PDI,[1]; Table 17-1,0.117
same,Size (nm),[1]; Table 17-1,80.2 nm
same,EE (%),[2]; Table 17-1,97.3%
same,"encapsulation efficiency, rank within the named table (in words)",[2]; [7],comparable to that for MC3
same,pKa,[3]; Table 17-1,6.73
same,Total Flux 3 hours,[4]; Table 17-2,6.27E+07
same,Total Flux 6 hours,[4]; Table 17-2,1.19E+08
same,Total Flux 24 hours,[4]; Table 17-2,1.27E+07
same,Total Flux Liver,"[5]; Table 17-3, mice, liver",2.16E+07
same,Total Flux Lung,"[5]; Table 17-3, mice",1.54E+05
same,Total Flux Spleen,"[5]; Table 17-3, mice",9.06E+05
same,IL-6,IL-6; Table 17-4,25.0
same,IP-10,IP-10; Table 17-4,134
"CCCCCCCCCCCCN(CCCO)CCCCCCCCCCCC [Compound 17-12, 3-(Didodecylamino)propan-1-ol]",PDI,[1]; Table 17-1,0.148
same,Size (nm),[1]; Table 17-1,76.1 nm
same,"particle size, rank within the named table (in words)",[1]; [7],smallest particles
same,EE (%),[2]; Table 17-1,95.04%
same,pKa,[3]; Table 17-1,6.83
same,Total Flux 3 hours,[4]; Table 17-2,2.94E+06
same,Total Flux 6 hours,[4]; Table 17-2,2.54E+06
same,Total Flux 24 hours,[4]; Table 17-2,4.66E+05
same,Total Flux Liver,"[5]; Table 17-3, mice, liver",4.94E+05
same,Total Flux Lung,"[5]; Table 17-3, mice",4.89E+04
same,Total Flux Spleen,"[5]; Table 17-3, mice",7.81E+04
same,IL-6,IL-6; Table 17-4,83.1
same,IP-10,IP-10; Table 17-4,148
"CCCCC/C=C\C/C=C\CCCCCCCCN(CCCCCCCC/C=C\C/C=C\CCCCC)CCN1CCN(CCN(CCCCCCCCCCCC)CCN(CCCCCCCCCCCC)CCCCCCCCCCCC)CC1 [Compound 29, N^1-(2-(4-(2-(Di((9Z,12Z)-octadeca-9,12-dien-1-yl)amino)ethyl)piperazin-1-yl)ethyl)-N^1,N^2,N^2-tridodecylethane-1,2-diamine]",PDI,[1]; [8],0.060
same,Size (nm),[1]; [9],105.3 nm
same,EE (%),[2]; [8],48.8%
same,pKa,[3]; [8],5.97
same,Total Flux 3 hours,[4]; Table 2,1.22E+08
same,Total Flux 6 hours,[4]; Table 2,2.51E+08
same,Total Flux 24 hours,[4]; Table 2,2.69E+07
same,Total Flux Liver,"[5]; Table 3, mice, liver",2.27E+07
same,Total Flux Lung,"[5]; Table 3, mice",4.70E+05
same,Total Flux Spleen,"[5]; Table 3, mice",2.97E+06
same,IL-6,IL-6; Table 4,108
same,IP-10,IP-10; Table 4,3454
"CCCCCCCCCCCCN(CCO)CCN(CCCCCCCCC)CCCCCCCCC [Compound 20-18, 2-((2-(Dinonylamino)ethyl)(dodecyl)amino)ethan-1-ol]",PDI,[1]; [6],0.150
same,Size (nm),[1]; [6],70.1 nm
same,EE (%),[2]; [6],91.1%
same,pKa,[3]; [6],6.31
same,Total Flux 3 hours,[4]; Table 20-2,5.80E+09
same,Total Flux 6 hours,[4]; Table 20-2,6.48E+09
same,Total Flux 24 hours,[4]; Table 20-2,1.54E+09
same,Total Flux Femur,"[5]; Table 20-3, mice",3.78E+05
same,Total Flux Liver,"[5]; Table 20-3, mice, liver",4.83E+08
same,Total Flux Lung,"[5]; Table 20-3, mice",1.84E+06
same,Total Flux Spleen,"[5]; Table 20-3, mice",2.36E+06
same,IL-6,"IL-6; Table 20-4, formula (20-I)",102
same,IP-10,"IP-10; Table 20-4, formula (20-I)",572.7
"CCCCCCCC/C=C\CCCCCCCCN(CCCCCCCC/C=C\CCCCCCCC)CCN1CCN(CCN(CCCCCCCCCCCC)CCN(CCCCCCCCCCCC)CCCCCCCCCCCC)CC1 [Compound 28, N^1-(2-(4-(2-(Di((Z)-octadec-9-en-1-yl)amino)ethyl)piperazin-1-yl)ethyl)-N^1,N^2,N^2-tridodecylethane-1,2-diamine]",PDI,[1]; [8],0.099
same,Size (nm),[1]; [9],87.4 nm
same,EE (%),[2]; [8],80.2%
same,pKa,[3]; [8],6.04
same,Total Flux 3 hours,[4]; Table 2,6.18E+09
same,Total Flux 6 hours,[4]; Table 2,7.28E+09
same,Total Flux 24 hours,[4]; Table 2,4.02E+08
same,Total Flux Femur,"[5]; Table 3, mice",1.16E+06
same,Total Flux Liver,"[5]; Table 3, mice, liver",8.10E+08
same,Total Flux Lung,"[5]; Table 3, mice",5.73E+06
same,Total Flux Spleen,"[5]; Table 3, mice",5.67E+06
same,IL-6,IL-6; Table 4,73
same,IP-10,IP-10; Table 4,5364
"CCCCC/C=C\C/C=C\CCCCCCCCN(CCO)CCCCCCCCCCCC [Compound 17-4, 2-(Dodecyl((9Z,12Z)-octadeca-9,12-dien-1-yl)amino)ethan-1-ol]",PDI,[1]; Table 17-1,0.154
same,Size (nm),[1]; Table 17-1,95.6 nm
same,EE (%),[2]; Table 17-1,94.5%
same,pKa,[3]; Table 17-1,6.34
same,Total Flux 3 hours,[4]; Table 17-2,1.22E+09
same,Total Flux 6 hours,[4]; Table 17-2,3.60E+08
same,Total Flux 24 hours,[4]; Table 17-2,6.05E+07
same,"total flux / Luc expression, rank within the named table (in words)",[4]; each time point,"substantially higher flux than compositions including Compounds 17-2, 17-3, and 17-7"
same,Total Flux Liver,"[5]; Table 17-3, mice, liver",8.00E+07
same,Total Flux Lung,"[5]; Table 17-3, mice",1.95E+05
same,Total Flux Spleen,"[5]; Table 17-3, mice",2.30E+06
same,"total flux in the spleen, rank within the named table (in words)",[5]; mice,highest
same,IL-6,IL-6; Table 17-4,80.7
same,"IL-6 induction, rank within the named table (in words)",IL-6,highest IL-6 and IP-10 levels
same,IP-10,IP-10; Table 17-4,560
same,"IP-10 induction, rank or comparison with IL-6 (in words)",IP-10,highest IL-6 and IP-10 levels
